# Patent US12398154B2, “Azaquinazoline pan-KRas inhibitors” (Mirati Therapeutics, Inc., priority 2020, dated 2025)
# pIC50: −log10 of the molar value.
# Key:
# KRas G12S = KRas G12S (Homo sapiens, UniProt P01116, G12S); assay: biochemical;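 note: TR-FRET displacement binding to KRas, read after one hour incubation at room temperature, IC50 from four-parameter fit of percent of control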
# Description: (§1) The ability of a compound to bind to KRas was measured using a TR-FRET displacement assay. […] After a 60-minute incubation at room temperature, the reaction was measured using a BMG LABTECH CLARIO star Plus via TR-FRET. […] The POC values were fit to a 4-parameter IC50 equation and the IC50 value reported.
# KRas G12R = KRas G12R (Homo sapiens, UniProt P01116, G12R); assay: biochemical;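 note: TR-FRET displacement assay of compound binding to KRas, read after one hour at room temperature, potency from a four-parameter fit of percent-of-control values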
# Sequence of KRas G12R (P01116 1-169 isoform P01116-2 G12R): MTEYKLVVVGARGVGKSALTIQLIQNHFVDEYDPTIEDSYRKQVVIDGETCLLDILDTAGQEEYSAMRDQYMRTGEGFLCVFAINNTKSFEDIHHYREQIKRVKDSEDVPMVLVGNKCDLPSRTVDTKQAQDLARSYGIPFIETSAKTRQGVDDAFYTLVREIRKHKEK
# Description: as §1
# KRas G12D = KRas G12D (Homo sapiens, UniProt P01116, G12D); assay: biochemical;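 note: TR-FRET displacement binding assay on KRas, read after a one-hour incubation at room temperature, IC50 fitted from percent-of-control values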
# Sequence of KRas G12D (P01116 1-169 isoform P01116-2 G12D): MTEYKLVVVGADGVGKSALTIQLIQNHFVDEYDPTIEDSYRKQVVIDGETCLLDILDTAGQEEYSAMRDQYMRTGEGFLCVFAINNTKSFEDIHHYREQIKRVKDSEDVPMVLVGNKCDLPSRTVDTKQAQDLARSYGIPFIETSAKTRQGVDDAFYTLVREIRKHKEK
# Description: as §1
# KRas G13D = biological target: T1, KRas G13D (Homo sapiens, UniProt P01116, G13D); assay: KRas binding assay (TR-FRET displacement);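 note: One-hour room temperature incubation before TR-FRET reading, IC50 from a four-parameter curve fit to percent-of-control data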
# T1 construct: Biotinylated KRas (corresponding to amino acids 1-169, produced at Accelegan Inc.); biotin (biotinylated); purchased Accelegan Inc
# T1 sequence (P01116 1-169 isoform P01116-2 G13D): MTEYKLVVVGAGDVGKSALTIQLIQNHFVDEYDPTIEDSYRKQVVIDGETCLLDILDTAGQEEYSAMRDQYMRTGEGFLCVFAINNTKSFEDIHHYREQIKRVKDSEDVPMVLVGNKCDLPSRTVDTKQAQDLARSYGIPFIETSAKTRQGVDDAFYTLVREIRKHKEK
# Description: as §1
# KRas G12A = KRas G12A (Homo sapiens, UniProt P01116, G12A); assay: biochemical;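 note: binding to KRas measured by TR-FRET displacement after one hour at room temperature, IC50 from a four-parameter fit of percent-of-control values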
# Sequence of KRas G12A (P01116 1-169 isoform P01116-2 G12A): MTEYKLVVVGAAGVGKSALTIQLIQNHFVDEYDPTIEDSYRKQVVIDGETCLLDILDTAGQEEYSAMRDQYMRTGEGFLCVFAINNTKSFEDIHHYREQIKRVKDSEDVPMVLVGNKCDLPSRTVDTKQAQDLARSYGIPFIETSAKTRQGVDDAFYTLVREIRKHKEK
# Description: as §1
# KRas WT = KRas WT (Homo sapiens, UniProt P01116); assay: biochemical;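 note: binding to KRas read as TR-FRET displacement after a one-hour room-temperature incubation, IC50 derived from percent-of-control values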
# Sequence of KRas WT (P01116 1-169 isoform P01116-2): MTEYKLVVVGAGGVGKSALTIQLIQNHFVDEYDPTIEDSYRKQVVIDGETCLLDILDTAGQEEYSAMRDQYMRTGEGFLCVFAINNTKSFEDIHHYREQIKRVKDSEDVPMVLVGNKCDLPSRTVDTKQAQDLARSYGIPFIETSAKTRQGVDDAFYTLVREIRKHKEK
# Description: as §1
# KRas Q61H = biological target: T2, KRas Q61H (Homo sapiens, UniProt P01116, Q61H); assay: KRas binding assay (TR-FRET displacement);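 note: TR-FRET signal read after one hour at room temperature, IC50 derived by four-parameter fitting of percent-of-control values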
# T2 construct: Biotinylated KRas (corresponding to amino acids 1-169, produced at Accelegan Inc.); biotin (biotinylated); purchased Accelegan Inc
# T2 sequence (P01116 1-169 isoform P01116-2 Q61H): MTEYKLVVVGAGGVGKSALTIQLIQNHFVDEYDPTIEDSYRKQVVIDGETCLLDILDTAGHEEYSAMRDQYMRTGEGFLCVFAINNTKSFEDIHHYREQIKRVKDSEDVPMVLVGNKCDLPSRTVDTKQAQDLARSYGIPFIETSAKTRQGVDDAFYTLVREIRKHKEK
# Description: as §1
# KRas G12C = KRas G12C (Homo sapiens, UniProt P01116, G12C); assay: biochemical;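 note: binding to KRas assessed by TR-FRET displacement after one hour incubation at room temperature, potency fitted from percent-of-control values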
# Sequence of KRas G12C (P01116 1-169 isoform P01116-2 G12C): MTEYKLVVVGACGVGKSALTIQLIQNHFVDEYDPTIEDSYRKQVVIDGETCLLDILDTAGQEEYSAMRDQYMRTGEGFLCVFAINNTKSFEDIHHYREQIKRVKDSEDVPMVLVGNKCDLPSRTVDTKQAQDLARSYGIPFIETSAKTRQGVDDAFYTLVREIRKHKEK
# Description: as §1
# KRas G12V = KRas G12V (Homo sapiens, UniProt P01116, G12V); assay: biochemical;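 note: KRas binding measured by TR-FRET displacement at room temperature, IC50 fitted from percent of control values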
# Sequence of KRas G12V (P01116 1-169 isoform P01116-2 G12V): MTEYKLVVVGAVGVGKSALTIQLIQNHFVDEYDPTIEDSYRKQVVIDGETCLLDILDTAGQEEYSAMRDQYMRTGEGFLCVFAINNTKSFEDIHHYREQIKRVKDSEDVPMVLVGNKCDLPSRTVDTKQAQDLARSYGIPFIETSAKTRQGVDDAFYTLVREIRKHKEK
# Description: as §1
# Sequence of KRas G12S (P01116 1-169 isoform P01116-2 G12S): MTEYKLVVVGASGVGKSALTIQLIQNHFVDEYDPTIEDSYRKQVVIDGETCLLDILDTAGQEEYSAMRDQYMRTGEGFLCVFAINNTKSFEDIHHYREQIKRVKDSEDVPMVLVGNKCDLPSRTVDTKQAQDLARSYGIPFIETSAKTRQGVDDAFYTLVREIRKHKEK
SMILES,pIC50 (KRas G12S),pIC50 (KRas G12R),pIC50 (KRas G12D),IC50 (KRas G13D) [nM],pIC50 (KRas G12A),pIC50 (KRas WT),IC50 (KRas Q61H) [nM],pIC50 (KRas G12C),pIC50 (KRas G12V)
"OC1CC2CC(C1)N(c1nc(OCC34CCCN3CCC4)nc3c(F)c(-c4cccc5cccc(Cl)c45)ncc13)C2 (stereo not drawn) [Example 106, 6-(7-(8-chloronaphthalen-1-yl)-8-fluoro-2-((tetrahydro-1H-pyrrolizin-7a(5H)-yl)methoxy)pyrido[4,3-d]pyrimidin-4-yl)-6-azabicyclo[3.2.1]octan-3-ol]",6.43,5.82,5.44,2340,6.14,5.68,2340,5.95,6.21
"NC(=O)N1CC(Nc2nc(OCC34CCCN3CCC4)nc3c(F)c(-c4cccc5cccc(Cl)c45)ncc23)C1 [Example 107, 3-((7-(8-chloronaphthalen-1-yl)-8-fluoro-2-((tetrahydro-1H-pyrrolizin-7a(5H)-yl)methoxy)pyrido[4,3-d]pyrimidin-4-yl)amino)azetidine-1-carboxamide]",5.16,5.34,4.97,8790,5.19,5.07,8780,5.45,5.47
"Fc1c(-c2cccc3cccc(Cl)c23)ncc2c(N3CCCC(n4cccn4)C3)nc(OCC34CCCN3CCC4)nc12 (stereo not drawn) [Example 109, 4-(3-(1H-pyrazol-1-yl)piperidin-1-yl)-7-(8-chloronaphthalen-1-yl)-8-fluoro-2-((tetrahydro-1H-pyrrolizin-7a(5H)-yl)methoxy)pyrido[4,3-d]pyrimidine]",5.13,5.39,4.99,4340,5.37,5.40,4940,5.37,5.13
"O=C1NCC(CNc2nc(OCC34CCCN3CCC4)nc3c(F)c(-c4cccc5cccc(F)c45)ncc23)O1 (stereo not drawn) [Example 110, 5-(((8-fluoro-7-(8-fluoronaphthalen-1-yl)-2-((tetrahydro-1H-pyrrolizin-7a(5H)-yl)methoxy)pyrido[4,3-d]pyrimidin-4-yl)amino)methyl)oxazolidin-2-one]",5.36,5.61,4.57,9330,5.03,5.05,10100,5.28,5.40
"C[C@@H]1C[C@@H](O)CN(c2nc(OCC34CCCN3CCC4)nc3c(F)c(-c4cccc5cccc(F)c45)ncc23)C1 [Example 112, (3R,5R)-1-(8-fluoro-7-(8-fluoronaphthalen-1-yl)-2-((tetrahydro-1H-pyrrolizin-7a(5H)-yl)methoxy)pyrido[4,3-d]pyrimidin-4-yl)-5-methylpiperidin-3-ol]",4.51,4.55,4.43,13300,4.60,4.44,20700,4.56,4.59
"OCC1CCCN(c2nc(OCC34CCCN3CCC4)nc3c(F)c(-c4cccc5cccc(F)c45)ncc23)C1 (stereo not drawn) [Example 113, (1-(8-fluoro-7-(8-fluoronaphthalen-1-yl)-2-((tetrahydro-1H-pyrrolizin-7a(5H)-yl)methoxy)pyrido[4,3-d]pyrimidin-4-yl)piperidin-3-yl)methanol]",4.98,4.80,4.85,12100,5.02,5.07,12200,5.15,4.92
"Fc1c(-c2cccc3cccc(F)c23)ncc2c(N3CCCC4(CC4)C3)nc(OCC34CCCN3CCC4)nc12 [Example 114, 8-fluoro-7-(8-fluoronaphthalen-1-yl)-4-(5-azaspiro[2.5]octan-5-yl)-2-((tetrahydro-1H-pyrrolizin-7a(5H)-yl)methoxy)pyrido[4,3-d]pyrimidine]",5.55,5.43,5.36,29900,5.58,5.57,43300,5.61,5.54
"Fc1c(-c2cccc3cccc(F)c23)ncc2c(NCCc3c[nH]nn3)nc(OCC34CCCN3CCC4)nc12 [Example 115, N-(2-(1H-1,2,3-triazol-4-yl)ethyl)-8-fluoro-7-(8-fluoronaphthalen-1-yl)-2-((tetrahydro-1H-pyrrolizin-7a(5H)-yl)methoxy)pyrido[4,3-d]pyrimidin-4-amine]",4.96,5.33,4.51,21200,4.98,4.94,22300,5.18,5.24
"CC1CC(O)CCN(c2nc(OCC34CCCN3CCC4)nc3c(F)c(-c4cccc5cccc(F)c45)ncc23)C1 (stereo not drawn) [Example 116, 1-(8-fluoro-7-(8-fluoronaphthalen-1-yl)-2-((tetrahydro-1H-pyrrolizin-7a(5H)-yl)methoxy)pyrido[4,3-d]pyrimidin-4-yl)-6-methylazepan-4-ol]",5.44,5.20,5.48,2700,5.56,5.46,5200,5.36,5.39
"OCC1CN(c2nc(OCC34CCCN3CCC4)nc3c(F)c(-c4cccc5cccc(F)c45)ncc23)CCC1O (stereo not drawn) [Example 117, 1-(8-fluoro-7-(8-fluoronaphthalen-1-yl)-2-((tetrahydro-1H-pyrrolizin-7a(5H)-yl)methoxy)pyrido[4,3-d]pyrimidin-4-yl)-3-(hydroxymethyl)piperidin-4-ol]",4.96,5.00,4.50,5680,5.04,5.01,8240,5.18,4.95
"Fc1c(-c2cccc3cccc(F)c23)ncc2c(NCCCn3ccnn3)nc(OCC34CCCN3CCC4)nc12 [Example 118, N-(3-(1H-1,2,3-triazol-1-yl)propyl)-8-fluoro-7-(8-fluoronaphthalen-1-yl)-2-((tetrahydro-1H-pyrrolizin-7a(5H)-yl)methoxy)pyrido[4,3-d]pyrimidin-4-amine]",5.21,4.95,4.79,8810,5.09,5.07,14000,5.13,5.12
"Fc1c(-c2cccc3cccc(F)c23)ncc2c(NCCCn3cnnn3)nc(OCC34CCCN3CCC4)nc12 [Example 119, N-(3-(1H-tetrazol-1-yl)propyl)-8-fluoro-7-(8-fluoronaphthalen-1-yl)-2-((tetrahydro-1H-pyrrolizin-7a(5H)-yl)methoxy)pyrido[4,3-d]pyrimidin-4-amine]",4.84,4.81,4.50,17200,4.84,4.80,27600,4.94,4.74
"Oc1cccc2c1CN(c1nc(OCC34CCCN3CCC4)nc3c(F)c(-c4cccc5cccc(F)c45)ncc13)C2 [Example 120, 2-(8-fluoro-7-(8-fluoronaphthalen-1-yl)-2-((tetrahydro-1H-pyrrolizin-7a(5H)-yl)methoxy)pyrido[4,3-d]pyrimidin-4-yl)isoindolin-4-ol]",4.07,≤ 4.00,≤ 4.00,≥ 100000,4.48,4.47,≥ 100000,4.70,≤ 4.00
